Measurements as given in ChEMBL document CHEMBL5550132, “Structure-activity relationship in NOD2 agonistic muramyl dipeptides” (Eur J Med Chem, 2024).

Biological target: T1, Nuclear factor NF-kappa-B complex (Homo sapiens) (UniProt Q00653+P19838+Q04206)
Assay: Activation of NF-KappaB (unknown origin) expressed in HEK293T cells assessed as fold change at 100 nM incubated for 12 hrs by Renilla luciferase assay
Format: cell-based
Details: filed as activator

T1 sequence (P19838 whole entry, looked up): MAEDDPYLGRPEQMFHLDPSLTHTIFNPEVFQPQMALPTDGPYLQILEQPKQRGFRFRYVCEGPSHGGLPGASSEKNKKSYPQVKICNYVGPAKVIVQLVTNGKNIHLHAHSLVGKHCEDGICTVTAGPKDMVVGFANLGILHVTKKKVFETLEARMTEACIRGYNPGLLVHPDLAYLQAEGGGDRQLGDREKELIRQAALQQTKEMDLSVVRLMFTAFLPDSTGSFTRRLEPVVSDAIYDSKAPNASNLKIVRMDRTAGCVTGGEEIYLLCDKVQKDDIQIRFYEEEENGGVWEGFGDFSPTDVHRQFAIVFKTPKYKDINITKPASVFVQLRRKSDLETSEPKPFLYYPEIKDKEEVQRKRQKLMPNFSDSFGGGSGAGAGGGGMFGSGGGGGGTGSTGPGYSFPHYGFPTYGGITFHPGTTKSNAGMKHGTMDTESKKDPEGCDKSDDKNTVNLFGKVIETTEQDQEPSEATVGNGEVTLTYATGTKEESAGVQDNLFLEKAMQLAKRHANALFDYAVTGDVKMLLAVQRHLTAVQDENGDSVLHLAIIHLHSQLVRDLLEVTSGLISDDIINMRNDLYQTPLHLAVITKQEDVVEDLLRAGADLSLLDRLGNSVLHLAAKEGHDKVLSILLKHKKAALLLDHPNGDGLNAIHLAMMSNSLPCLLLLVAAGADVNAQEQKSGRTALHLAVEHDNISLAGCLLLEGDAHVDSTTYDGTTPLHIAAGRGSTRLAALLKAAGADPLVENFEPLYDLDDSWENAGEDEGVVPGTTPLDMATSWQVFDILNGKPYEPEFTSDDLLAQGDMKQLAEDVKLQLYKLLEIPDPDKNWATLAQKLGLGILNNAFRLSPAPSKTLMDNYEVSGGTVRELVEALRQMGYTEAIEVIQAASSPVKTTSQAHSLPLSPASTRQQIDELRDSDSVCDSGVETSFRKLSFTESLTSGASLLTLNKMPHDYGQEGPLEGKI
T1 sequence (Q00653 whole entry, looked up): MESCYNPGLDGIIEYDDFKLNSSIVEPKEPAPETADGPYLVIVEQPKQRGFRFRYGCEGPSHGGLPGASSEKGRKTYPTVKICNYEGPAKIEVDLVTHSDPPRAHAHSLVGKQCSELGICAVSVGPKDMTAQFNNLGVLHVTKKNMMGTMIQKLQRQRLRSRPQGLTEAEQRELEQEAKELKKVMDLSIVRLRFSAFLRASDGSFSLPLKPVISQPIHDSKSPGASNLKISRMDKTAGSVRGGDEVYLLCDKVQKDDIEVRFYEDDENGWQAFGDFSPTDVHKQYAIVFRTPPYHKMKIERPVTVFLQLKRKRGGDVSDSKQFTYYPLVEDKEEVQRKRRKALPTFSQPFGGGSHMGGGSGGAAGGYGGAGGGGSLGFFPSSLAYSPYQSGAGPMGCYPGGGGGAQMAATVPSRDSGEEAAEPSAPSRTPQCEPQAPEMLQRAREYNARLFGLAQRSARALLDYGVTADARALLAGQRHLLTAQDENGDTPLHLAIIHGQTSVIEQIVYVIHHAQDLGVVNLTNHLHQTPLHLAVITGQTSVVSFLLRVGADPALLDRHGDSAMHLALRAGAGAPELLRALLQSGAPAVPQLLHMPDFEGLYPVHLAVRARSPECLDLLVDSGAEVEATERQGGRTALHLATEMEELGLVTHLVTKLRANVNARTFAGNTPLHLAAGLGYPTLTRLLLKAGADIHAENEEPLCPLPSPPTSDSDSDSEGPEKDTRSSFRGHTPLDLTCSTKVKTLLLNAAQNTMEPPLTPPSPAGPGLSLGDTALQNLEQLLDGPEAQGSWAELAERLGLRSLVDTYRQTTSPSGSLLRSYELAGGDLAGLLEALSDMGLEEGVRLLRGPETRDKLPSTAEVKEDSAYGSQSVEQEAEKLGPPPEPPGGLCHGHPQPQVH
T1 sequence (Q04206 whole entry, looked up): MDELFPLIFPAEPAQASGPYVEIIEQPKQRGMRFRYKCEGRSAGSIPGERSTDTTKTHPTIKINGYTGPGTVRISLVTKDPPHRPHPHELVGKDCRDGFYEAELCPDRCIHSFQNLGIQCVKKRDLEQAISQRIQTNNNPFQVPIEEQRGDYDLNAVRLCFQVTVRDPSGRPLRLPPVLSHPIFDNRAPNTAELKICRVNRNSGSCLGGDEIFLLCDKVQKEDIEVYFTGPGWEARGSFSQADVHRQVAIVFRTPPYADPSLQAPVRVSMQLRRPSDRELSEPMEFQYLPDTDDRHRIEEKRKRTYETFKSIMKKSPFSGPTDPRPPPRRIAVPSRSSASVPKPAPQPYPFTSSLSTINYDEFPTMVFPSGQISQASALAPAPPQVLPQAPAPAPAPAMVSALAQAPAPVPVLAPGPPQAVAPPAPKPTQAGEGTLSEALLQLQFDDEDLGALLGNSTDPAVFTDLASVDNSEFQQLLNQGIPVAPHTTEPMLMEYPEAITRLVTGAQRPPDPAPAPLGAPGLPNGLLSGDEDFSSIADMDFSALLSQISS

Structure (SMILES)	fold change (FC)
CC(=O)N[C@@H]1[C@@H](O[C@H](C)C(=O)N[C@@H](C)C(=O)N[C@H](CC(=O)O)C(N)=O)[C@H](O)[C@@H](CO)O[C@H]1O	1.87

Biological target: T1, Nuclear factor NF-kappa-B complex (Homo sapiens)
Assay: Activation of NF-KappaB (unknown origin) expressed in HEK293T cells assessed as fold change at 1000 nM incubated for 12 hrs by Renilla luciferase assay
Format: cell-based
Details: filed as activator

Structure (SMILES)	fold change (FC)
CC(=O)N[C@@H]1[C@@H](O[C@H](C)C(=O)N[C@@H](C)C(=O)N[C@H](CC(=O)O)C(N)=O)[C@H](O)[C@@H](CO)O[C@H]1O	1.9

Biological target: T1, Nuclear factor NF-kappa-B complex (Homo sapiens)
Assay: Activation of NF-KappaB (unknown origin) expressed in HEK293T cells assessed as fold change at 10 nM incubated for 12 hrs by Renilla luciferase assay
Format: cell-based
Details: filed as activator

Structure (SMILES)	fold change (FC)
CC(=O)N[C@@H]1[C@@H](O[C@H](C)C(=O)N[C@@H](C)C(=O)N[C@H](CC(=O)O)C(N)=O)[C@H](O)[C@@H](CO)O[C@H]1O	1.85

Biological target: T1, Nuclear factor NF-kappa-B complex (Homo sapiens)
Assay: Activation of NF-KappaB (unknown origin) expressed in HEK293T cells assessed as fold change at 1 uM incubated for 12 hrs by Renilla luciferase assay
Format: cell-based
Details: filed as activator

Structure (SMILES)	fold change (FC)
CCCCCO[C@@H]1O[C@H](CO)[C@@H](O)[C@H](O[C@H](C)C(=O)N[C@@H](C)C(=O)N[C@H](CCC(=O)O)C(N)=O)[C@H]1NC(=O)CO	4.5
C[C@H](NC(=O)[C@@H](C)O[C@@H]1[C@@H](N)[C@H](O)O[C@H](CO)[C@H]1O)C(=O)N[C@H](CCC(=O)O)C(N)=O	4.6
C[C@H](NC(=O)[C@@H](C)O[C@H]1[C@H](O)[C@@H](CO)O[C@@H](O)[C@@H]1NC(=O)Cc1c(F)c(F)c(F)c(F)c1F)C(=O)N[C@H](CCC(=O)O)C(N)=O	5.4
CCCCCCCCC(=O)N[C@H]1[C@H](OC)O[C@H](CO)[C@@H](O)[C@@H]1O[C@H](C)C(=O)N[C@@H](C)C(=O)N[C@H](CCC(=O)O)C(N)=O	4.3
C[C@H](NC(=O)[C@@H](C)O[C@H]1[C@H](O)[C@@H](CO)O[C@@H](OCCCCN)[C@@H]1NC(=O)CO)C(=O)N[C@H](CCC(=O)O)C(N)=O	5
CCCCCCCCCCCO[C@@H]1O[C@H](CO)[C@@H](O)[C@H](O[C@H](C)C(=O)N[C@@H](C)C(=O)N[C@H](CCC(=O)O)C(N)=O)[C@H]1NC(=O)CO	4.85
CCCCCCCCC(=O)N[C@@H]1[C@@H](O[C@H](C)C(=O)N[C@@H](C)C(=O)N[C@H](CCC(=O)O)C(N)=O)[C@H](O)[C@@H](CO)O[C@H]1O	2.4
C[C@H](NC(=O)[C@@H](C)O[C@H]1[C@H](O)[C@@H](CO)O[C@@H](O)[C@@H]1NC(=O)CN)C(=O)N[C@H](CCC(=O)O)C(N)=O	4.5
COCC(=O)N[C@@H]1[C@@H](O[C@H](C)C(=O)N[C@@H](C)C(=O)N[C@H](CCC(=O)O)C(N)=O)[C@H](O)[C@@H](CO)O[C@H]1O	4.4
COCC(=O)N[C@H]1[C@H](OC)O[C@H](CO)[C@@H](O)[C@@H]1O[C@H](C)C(=O)N[C@@H](C)C(=O)N[C@H](CCC(=O)O)C(N)=O	5.55
CCCCC(=O)N[C@@H]1[C@@H](O[C@H](C)C(=O)N[C@@H](C)C(=O)N[C@H](CCC(=O)O)C(N)=O)[C@H](O)[C@@H](CO)O[C@H]1O	4.5
CO[C@@H]1O[C@H](CO)[C@@H](O)[C@H](O[C@H](C)C(=O)N[C@@H](C)C(=O)N[C@H](CCC(=O)O)C(N)=O)[C@H]1NC(=O)Cc1ccccc1	4.45
CO[C@@H]1O[C@H](CO)[C@@H](O)[C@H](O[C@H](C)C(=O)N[C@@H](C)C(=O)N[C@H](CCC(=O)O)C(N)=O)[C@H]1NC(=O)CO	5.9
CCCCC(=O)N[C@H]1[C@H](OC)O[C@H](CO)[C@@H](O)[C@@H]1O[C@H](C)C(=O)N[C@@H](C)C(=O)N[C@H](CCC(=O)O)C(N)=O	5.25
C[C@H](NC(=O)[C@@H](C)O[C@H]1[C@H](O)[C@@H](CO)O[C@@H](O)[C@@H]1NC(=O)Cc1ccccc1)C(=O)N[C@H](CCC(=O)O)C(N)=O	3.85
CO[C@@H]1O[C@H](CO)[C@@H](O)[C@H](O[C@H](C)C(=O)N[C@@H](C)C(=O)N[C@H](CCC(=O)O)C(N)=O)[C@H]1N	6.2
CO[C@@H]1O[C@H](CO)[C@@H](O)[C@H](O[C@H](C)C(=O)N[C@@H](C)C(=O)N[C@H](CCC(=O)O)C(N)=O)[C@H]1NC(=O)Cc1c(F)c(F)c(F)c(F)c1F	5
C[C@H](NC(=O)[C@@H](C)O[C@H]1[C@H](O)[C@@H](CO)O[C@@H](O)[C@@H]1NC(=O)CO)C(=O)N[C@H](CCC(=O)O)C(N)=O	4.5
C[C@H](NC(=O)CO[C@H]1[C@H](O)[C@@H](CO)O[C@@H](O)[C@@H]1NC(=O)CO)C(=O)N[C@H](CCC(=O)O)C(N)=O	5.8
